Assay results from a melting point compilation (Tetko et al.; mined from patent text by program, amines drawn as free bases though some values may be those of a salt).

| melting point [°C] | SMILES |
| --- | --- |
| 142 | Nc1cc(OCCC2CCCCC2)nc(N)n1 |
| 180 to 181 | CCOCc1nc2c(N)nc3cccnc3c2n1CCCCN(OC)C(C)=O |
| 151 to 153 | COC(=O)n1c(SCc2nccc(SCCN3CCOCC3)c2C)nc2ccccc21 |
| 210 | Nc1ccc2ccc(Oc3ccc(F)cc3)nc2n1 |
| 195 | Cc1nc2c(cnn2-c2c(Cl)cc(C(F)(F)F)cc2Cl)c(=O)n1C |
| 185 to 187 | OCCn1cnc2c(Cl)nc3ccccc3c21 |
| 247 to 249 | CC(C)(C)C(NC(=O)c1ccc(Cl)cc1)Nc1c(Nc2ccc(F)cc2)c(=O)c1=O (centres undefined) |
| 152 to 155 | CC(=O)C(=NNc1ccc(Oc2ccccc2)cc1)Sc1ccc(Cl)cc1 |
| 169 to 170 | COC(=O)c1cc(-c2ccccc2)c(=O)n2ccc3ccc(Cl)cc3c12 |
| 114 to 116 | CCNC(=O)c1c(F)cccc1S(=O)C(C)(C)C (centres undefined) |
| 260 to 261 | O=C(c1ccccc1)n1c2ccccc2c2cc(O)c(O)cc21 |
| 92 to 94 | COC(=O)CCc1cccc(OCCC2Oc3ccccc3N(Cc3cccc(Cl)c3)C2=O)c1 (centres undefined) |
| 247 to 248 | CC(C)OC1=CC=CN2C1=NC(=O)C2(Cc1ccccc1)Cc1ccccc1 |
| 124 to 125 | Cc1sc(-c2ccccc2)nc1COc1ccc(C#N)cn1 |
| 109 | O[C@H]1C[C@@H](c2ccccc2)c2ccc(Cl)cc21 |
| 175 to 178 | O=C(CCCl)c1ccc2c3c1CCCC3C(=O)N2 (centres undefined) |
| 173 to 175 | Cc1oc(-c2ccccc2)nc1CCOc1ccc(CC(C(=O)O)C(=O)O)cc1 |
| 53 to 55 | COC(=O)c1ccc2nc(C(C)C)c(C(C)C)nc2c1 |
| 176 to 178 | CC(C)=NOCc1nc2c(N)nc3cc(Br)cnc3c2n1CC(C)C |
| 79 | C#CCN(C(=O)n1oc(C)c(Cl)c1=O)c1ccc(C)cc1 |
| 210 to 212 | CCCCc1oc2ccccc2c1C(=O)Nc1ccc(-c2ccc(OCc3nnn[nH]3)cc2)cc1 |
| 254 | FC(F)(F)c1n[nH]c(-c2nc3ccccc3s2)n1 |
| 133 to 134 | Nc1ccc2c(c1)C(NC(=O)C(F)(F)F)CC2 (centres undefined) |

| melting point [°C] | SMILES |
| --- | --- |
| 99.5 to 101 | COC(=O)CCn1c(=O)n(CCCCCN2CCN(c3cccc(C(F)(F)F)c3)CC2)c(=O)c2cscc21 |
| 198 to 200 | O=C1c2ccccc2C(=O)N1Cc1cc(F)ccc1[N+](=O)[O-] |
| 180 | Cc1cccc(C)c1Nc1nc(N)ns1 |
| 150 | CCN(CC)S(=O)(=O)c1ccccc1S(=O)(=O)N=C(Nc1nc(OC)nc(OC)n1)SC |
| 250 to 251 | COc1cccc2c1C(c1ccc(Cl)cc1)NC(=O)C2 (centres undefined) |
| 117 to 119 | O=C(NC1CCN(CCCc2ccc(Cl)cc2)C1)C12CC3CC(CC(C3)C1)C2 (centres undefined) |
| 67 to 72 | CN(C(=O)CC(CCN1CCC(Cc2ccccc2)CC1)c1ccc(Cl)c(Cl)c1)c1ccc(Cl)cc1 (centres undefined) |
| 137 to 139 | CNCC1(c2cccc(C(F)(F)F)c2)CCN(C(=O)CN2CCN(c3cnccn3)CC2)CC1 |
| 136 | COC(=O)c1ccc(-c2ccc(Cl)cc2)c(-c2ccc(Cl)cc2Cl)c1 |
| 142 to 143 | CC(=O)Nc1c(C)c2c(c(C)c1N(C)C)OC(C)(C)C2 |
| 236 | CCCn1c(=O)c2[nH]c(/C=C/c3cccc(OC)c3OC)nc2n(CCC)c1=O |
| 204 to 205 | COc1ccc2c(C(=O)O)cccc2c1SC(F)(F)F |
| 86.9 to 90 | COCC(COC)Nc1c(C)nn2c(-c3ccc(Cl)cc3Cl)cccc12 |
| 167 to 169 | O=Cc1ccc(N2C[C@H](CN3C(=O)c4ccccc4C3=O)OC2=O)cc1F |
| 191 to 194 | COc1ccc(C(=O)Nc2c(C)c(C)c3c(c2C)C(c2ccc(F)cc2)C(C)(C)O3)cc1 (centres undefined) |
| 110 to 112 | CC(C)c1cc(-c2ccc(F)cc2)cc(-c2ccc(F)cc2)c1C=O |
| 209 to 214 | CN(C)c1ccc(CNC(=O)CNC(=O)Nc2ccc(C(=N)N)cc2)cc1 |
| 209 to 210 | FC(F)(F)c1cccc(N2CCC(N=Cc3cnc4ccccc4c3)=N2)c1 |
| 125 | CCCC(=O)Oc1cc(-c2nc3cc(F)ccc3s2)ccc1OC |
| 183 to 185 | CCN(C(C)=O)c1ccc(O)cc1 |
| 124 to 126 | CCCc1nn(C)c2c(=O)n(CCCOc3ccc(OC(C)(C)C(=O)O)cc3)c(CC)nc12 |
| 101 to 102 | Cc1cc([N+](=O)[O-])ccc1N=C1C2CC3CC(C2)CC(C3)N1CC(C)C |
| 205 to 206 | O=C(COc1cccc(CCNS(=O)(=O)c2ccc(Br)cc2)c1)Nc1nnn[nH]1 |

| melting point [°C] | SMILES |
| --- | --- |
| 115 to 120 | COC(=O)c1cccc(-n2cncn2)c1 |
| 135 to 138 | CC(C)NCC(O)c1ccc(OCc2ccccc2)c(C(N)=O)c1 (centres undefined) |
| 68 to 71 | COc1cc(NS(=O)(=O)CCCCl)cc(OC)c1 |
| 176 to 178 | Cc1c(NC(=O)c2ccc(-c3ccc(F)cc3)cc2)ccc2cc(CN3CCOCC3)cnc12 |
| 125 to 131 | COCCOC(=O)c1ccccc1Nc1nc(Nc2cc3c(cc2OC)CCN(CCO)CC3)ncc1Cl |
| 118 to 120 | COCCOc1c(C)c(N2CCN(c3ccc(C)cc3)CC2)c(C)c2c1OC(C)(C)C2 |
| 135 to 136 | CC1OC(C)(C)c2cc(-c3ccc(C#N)n3C(=O)OC(C)(C)C)ccc2N1C(=O)OCC1c2ccccc2-c2ccccc21 (centres undefined) |
| 283 to 286 | CCOC(=O)c1[nH]c2cc(Cl)cc(Cl)c2c1NCC(=O)c1ccc([N+](=O)[O-])cc1 |
| 231 to 232 | O=C(O)CCCCOc1ccccc1C1(c2ccccc2)NC(=O)NC1=O (centres undefined) |
| 55 to 65 | CC(Cl)=Cc1ccc([N+](=O)[O-])o1 |
| 130 to 132 | O=C(Nc1ccc(C(F)(F)F)cc1)c1cccc(Oc2cccc(C(F)(F)F)c2)n1 |
| 177 to 178 | COC(=O)c1ccc(Cc2c(C(=O)OC)n(-c3ccccc3)c3nc(C)ccc3c2=O)cn1 |
| 64 to 65 | CS(=O)(=O)c1ccc(-n2cc(COCc3ccccc3)nc2-c2ccc(Cl)cc2)cc1 |
| 182 to 191 | CC(=O)N(Nc1ccc(Cl)cc1F)c1c(C#N)cnc2cc(O)ccc12 |
| < 250 | CC1(C)C2=C(Cl)C(=O)C(Cl)=CC2=Nc2ccc(O)cc21 |
| 78 to 82 | CC(C)C(CCCCCCCC(=O)O)NCc1ccc(F)cc1 (centres undefined) |
| 99 to 100 | c1ccc(N(Cc2ccc(OCOc3ccc(CN(c4ccccc4)c4ccccc4)cc3)cc2)c2ccccc2)cc1 |
| 168 to 170 | Cc1ccc(C(=O)CC(C)C(=O)O)cc1 (centres undefined) |
| 183 to 184 | COc1cc(OCCN2CCOCC2)c(C=CC(=O)c2ccc(C(N)=O)cc2)cc1-c1cccs1 |
| 217 to 218 | COc1ccc2[nH]c(CC(C)C)c(/C=C/C(=O)c3ccncc3)c2c1 |
| 166 | CCOC(=O)COc1ccc(OCc2ccccc2)cc1C(Nc1ccc(C(N)=S)cc1)C(=O)OCC (racemic) |
| 106 | Clc1ccc(-c2ncn(CCCN3CCOCC3)c2-c2ccncc2)cc1Cl |
| 171 to 173 | O=C(NCP(=O)(O)O)c1ccccc1 |
